Earlier results, collected in patent US12319654B2, “Inert nanocapsules” (THE UNIVERSITY COURT OF THE UNIVERSITY OF EDINBURGH, priority 2018, dated 2025).

Conditions: free anion

Clearance time: ca. 30 mins
SMILES: [O]=[99Tc](=[O])(=[O])[O-] [^99mTcO4^−]
